The record followed here is article PMC5298231, “The Malaria Parasite's Lactate Transporter PfFNT Is the Target of Antiplasmodial Compounds Identified in Whole Cell Phenotypic Screens” (PLoS Pathogens, 2017).

Structures are written as SMILES. Counter-ions that a name gives are not always drawn. Peptide text beside a SMILES is read from it.

For this assay, the system named is erythrocytes infected with 3D7 trophozoites. It counts as cell-based, Plasmodium falciparum. As to conditions: sheet Ratio; for Ratio of metabolite abundance, Exp1_1hr: Exp1, 1hr; for Ratio of metabolite abundance, Exp1_3hr: Exp1, 3hr; for Ratio of metabolite abundance, Exp1_6hr: Exp1, 6hr; for Ratio of metabolite abundance, Exp2_1hr: Exp2, 1hr; for Ratio of metabolite abundance, Exp2_3hr: Exp2, 3hr; for Ratio of metabolite abundance, Exp2_6hr: Exp2, 6hr; for Ratio of metabolite abundance, Exp3_1hr: Exp3, 1hr; for Ratio of metabolite abundance, Exp3_3hr: Exp3, 3hr; for Ratio of metabolite abundance, Exp3_6hr: Exp3, 6hr.

Take `Nc1ccn([C@@H]2O[C@H](COP(=O)(O)OP(=O)(O)OP(=O)(O)O)[C@@H](O)[C@H]2O)c(=O)n1` [CTP]: the “Ratio of metabolite abundance, Exp1_1hr” value is listed as 0.8417; the “Ratio of metabolite abundance, Exp1_3hr” value is recorded as 0.6895; the “Ratio of metabolite abundance, Exp1_6hr” value is reported as 0.6055; the “Ratio of metabolite abundance, Exp2_1hr” value was found to be 0.8987. Moreover, the “Ratio of metabolite abundance, Exp2_3hr” value stood at 0.9317; the “Ratio of metabolite abundance, Exp2_6hr” value worked out at 0.7353; the “Ratio of metabolite abundance, Exp3_1hr” value was 0.7379; the “Ratio of metabolite abundance, Exp3_3hr” value was 0.8137. Moreover, the “Ratio of metabolite abundance, Exp3_6hr” value was 0.693.

In the case of `CC(C)CCC[C@@H](C)[C@H]1CC[C@H]2[C@@H]3CC=C4C[C@@H](OS(=O)(=O)O)CC[C@]4(C)[C@H]3CC[C@]12C` [Cholesteryl sulfate], the “Ratio of metabolite abundance, Exp1_1hr” value worked out at 0.8398; the “Ratio of metabolite abundance, Exp1_3hr” value is 0.919; the “Ratio of metabolite abundance, Exp1_6hr” value came to 0.8716; the “Ratio of metabolite abundance, Exp2_1hr” value came to 0.7894. Further, the “Ratio of metabolite abundance, Exp2_3hr” value is listed as 1.057; the “Ratio of metabolite abundance, Exp2_6hr” value is reported as 0.9329; the “Ratio of metabolite abundance, Exp3_1hr” value was 0.813; the “Ratio of metabolite abundance, Exp3_3hr” value is recorded as 0.7802. Also, the “Ratio of metabolite abundance, Exp3_6hr” value is given as 0.8279.

In the case of `CC(C)(COP(=O)(O)OP(=O)(O)OC[C@H]1O[C@@H](n2cnc3c(N)ncnc32)[C@H](O)[C@@H]1OP(=O)(O)O)[C@@H](O)C(=O)NCCC(=O)NCCS` [CoA], the “Ratio of metabolite abundance, Exp1_1hr” value is recorded as 0.7833; the “Ratio of metabolite abundance, Exp1_3hr” value came to 0.6851; the “Ratio of metabolite abundance, Exp1_6hr” value is recorded as 0.6052; the “Ratio of metabolite abundance, Exp2_1hr” value came to 0.7277. Further, the “Ratio of metabolite abundance, Exp2_3hr” value was 0.6878; the “Ratio of metabolite abundance, Exp2_6hr” value was found to be 0.6949; the “Ratio of metabolite abundance, Exp3_1hr” value worked out at 0.705; the “Ratio of metabolite abundance, Exp3_3hr” value is recorded as 0.6678. Further, the “Ratio of metabolite abundance, Exp3_6hr” value is reported as 0.6155.

On to `O=C1O[C@H]([C@H](O)CO)[C@H](O)[C@H]1O` [D-Glucono-1-4-lactone], for which the “Ratio of metabolite abundance, Exp1_1hr” value is 3.064; the “Ratio of metabolite abundance, Exp1_3hr” value was determined as 5.2964; the “Ratio of metabolite abundance, Exp1_6hr” value is listed as 6.162; the “Ratio of metabolite abundance, Exp2_1hr” value was 1.636. Moreover, the “Ratio of metabolite abundance, Exp2_3hr” value worked out at 4.1814; the “Ratio of metabolite abundance, Exp2_6hr” value was found to be 4.766; the “Ratio of metabolite abundance, Exp3_1hr” value was determined as 5.473; the “Ratio of metabolite abundance, Exp3_3hr” value is 2.843. The “Ratio of metabolite abundance, Exp3_6hr” value came out at 3.44.

Turning to `CC(C)C[C@H](NC(=O)[C@H](C)NC(=O)[C@@H](N)CC(=O)O)C(=O)N[C@H](C(=O)O)[C@@H](C)O` [DALT] (H-DALT-OH), the “Ratio of metabolite abundance, Exp1_1hr” value was 0.634; the “Ratio of metabolite abundance, Exp1_3hr” value was 0.4153; the “Ratio of metabolite abundance, Exp1_6hr” value worked out at 1.635; the “Ratio of metabolite abundance, Exp2_1hr” value amounted to 0.755. In addition, the “Ratio of metabolite abundance, Exp2_3hr” value was 0.5469; the “Ratio of metabolite abundance, Exp2_6hr” value is given as 1.439; the “Ratio of metabolite abundance, Exp3_1hr” value is given as 0.7343; the “Ratio of metabolite abundance, Exp3_3hr” value was determined as 0.6802. The “Ratio of metabolite abundance, Exp3_6hr” value was determined as 1.903.

Turning to `CC(C)[C@H](NC(=O)[C@H](CCC(=O)O)NC(=O)[C@@H](N)CC(=O)O)C(=O)NCC(=O)O` [DEVG] (H-DEVG-OH), the “Ratio of metabolite abundance, Exp1_1hr” value was 1.013; the “Ratio of metabolite abundance, Exp1_3hr” value is listed as 0.6309; the “Ratio of metabolite abundance, Exp1_6hr” value was 0.8753; the “Ratio of metabolite abundance, Exp2_1hr” value turned out to be 0.8701. Also, the “Ratio of metabolite abundance, Exp2_3hr” value was 1.059; the “Ratio of metabolite abundance, Exp2_6hr” value worked out at 1.02; the “Ratio of metabolite abundance, Exp3_1hr” value is listed as 1.139; the “Ratio of metabolite abundance, Exp3_3hr” value is 1.261. The “Ratio of metabolite abundance, Exp3_6hr” value is listed as 0.9839.

Take `CCCCC/C=C\C/C=C\C/C=C\CCCCCCC(=O)O` [DGLA]: the “Ratio of metabolite abundance, Exp1_1hr” value was 0.6512; the “Ratio of metabolite abundance, Exp1_3hr” value was determined as 0.4296; the “Ratio of metabolite abundance, Exp1_6hr” value came out at 1.744; the “Ratio of metabolite abundance, Exp2_1hr” value came out at 0.832. Moreover, the “Ratio of metabolite abundance, Exp2_3hr” value amounted to 0.6938; the “Ratio of metabolite abundance, Exp2_6hr” value is 1.456; the “Ratio of metabolite abundance, Exp3_1hr” value turned out to be 0.7202; the “Ratio of metabolite abundance, Exp3_3hr” value worked out at 0.7277. The “Ratio of metabolite abundance, Exp3_6hr” value is recorded as 2.242.

With `CC(C)C[C@H](NC(=O)[C@@H](N)CC(=O)O)C(=O)N[C@@H](CO)C(=O)O` [DLS] (H-Asp-Leu-Ser-OH), the “Ratio of metabolite abundance, Exp1_1hr” value is 0.4981; the “Ratio of metabolite abundance, Exp1_3hr” value is listed as 0.5494; the “Ratio of metabolite abundance, Exp1_6hr” value is given as 0.8725; the “Ratio of metabolite abundance, Exp2_1hr” value came to 0.8907. Besides, the “Ratio of metabolite abundance, Exp2_3hr” value was determined as 0.8658; the “Ratio of metabolite abundance, Exp2_6hr” value is on record as 1.124; the “Ratio of metabolite abundance, Exp3_1hr” value came to 0.9354; the “Ratio of metabolite abundance, Exp3_3hr” value amounted to 0.5821. For the same compound, the “Ratio of metabolite abundance, Exp3_6hr” value is reported as 0.7887.

For `O=C1CC(C(=O)O)NC(=O)N1` (stereo not drawn) [Dihydroorotate], the “Ratio of metabolite abundance, Exp1_1hr” value was determined as 0.7855; the “Ratio of metabolite abundance, Exp1_3hr” value is reported as 0.5689; the “Ratio of metabolite abundance, Exp1_6hr” value amounted to 0.4919; the “Ratio of metabolite abundance, Exp2_1hr” value was found to be 0.9051. The “Ratio of metabolite abundance, Exp2_3hr” value is 0.4712; the “Ratio of metabolite abundance, Exp2_6hr” value is 0.6702; the “Ratio of metabolite abundance, Exp3_1hr” value amounted to 0.4693; the “Ratio of metabolite abundance, Exp3_3hr” value stood at 0.4085. Besides, the “Ratio of metabolite abundance, Exp3_6hr” value is given as 0.3763.

In the case of `N[C@@H](CCC(=O)O)C(=O)N[C@@H](CO)C(=O)N[C@@H](Cc1ccccc1)C(=O)NCC(=O)O` [ESFG] (H-ESFG-OH), the “Ratio of metabolite abundance, Exp1_1hr” value is on record as 1.207; the “Ratio of metabolite abundance, Exp1_3hr” value came to 0.8233; the “Ratio of metabolite abundance, Exp1_6hr” value stood at 1.441; the “Ratio of metabolite abundance, Exp2_1hr” value stood at 1.518. Moreover, the “Ratio of metabolite abundance, Exp2_3hr” value was found to be 1.053; the “Ratio of metabolite abundance, Exp2_6hr” value is 1.4585; the “Ratio of metabolite abundance, Exp3_1hr” value amounted to 1.266; the “Ratio of metabolite abundance, Exp3_3hr” value turned out to be 0.9822. For the same compound, the “Ratio of metabolite abundance, Exp3_6hr” value is listed as 1.358.

`CC(C)[C@H](NC(=O)[C@@H](N)CCC(=O)O)C(=O)NCC(=O)NCC(=O)O` [EVGG] (H-EVGG-OH): the “Ratio of metabolite abundance, Exp1_1hr” value is given as 1.013; the “Ratio of metabolite abundance, Exp1_3hr” value stood at 0.7941; the “Ratio of metabolite abundance, Exp1_6hr” value is given as 0.8262; the “Ratio of metabolite abundance, Exp2_1hr” value is reported as 1.036. Besides, the “Ratio of metabolite abundance, Exp2_3hr” value came to 0.9151; the “Ratio of metabolite abundance, Exp2_6hr” value stood at 0.9384; the “Ratio of metabolite abundance, Exp3_1hr” value is 0.988; the “Ratio of metabolite abundance, Exp3_3hr” value is reported as 0.9676. Moreover, the “Ratio of metabolite abundance, Exp3_6hr” value is recorded as 0.8158.
